{"source": "patent US20050100561A1", "about": "“Use of topical compositions for the control of microbial diseases of the nail” (priority 2002, published 2005)", "key": {"onychomycosis": {"tested_on": "onychomycosis", "experiment": "Treatment of onychomycosis with topical copper silicate (cream or solution), patient trial", "assay_type": "in vivo, human", "details": "for Clinical - 100% clear / Clinical - New growth clear / Complete cure (KOH negative, culture negative and 100% clear) / Mycology (KOH negative and culture negative) / Mycology (KOH negative or culture negative): interim, applied twice daily", "experimental": "Subjects, not already receiving anti-fungal treatment, were assessed for clinical diagnosis of onychomycosis and photographs and nail clippings were taken. Those testing positive for onychomycosis were admitted to the trial.\nThe anti-fungal composition (cream or solution) was applied to the infected nail twice daily for the duration of the treatment.\nEstimates of the nail area involved were made during clinical visits and photographs were taken. Nail clippings were collected for KOH and dermatophyte culture. […] Results\nThe results presented hereunder are interim results of a 12 month study. Patients entered the trial and commenced their treatment at different dates. […] Patients were assessed at 0 (commencement). 6 weeks and 12 weeks."}, "Trichophyton rubrum": {"tested_on": "Trichophyton rubrum", "details": "modal value, n=26"}, "[1]": {"tested_on": "T. mentagrophytes var interdigitale", "details": "modal value, n=19"}, "T. mentagrophytes": {"tested_on": "T. mentagrophytes", "details": "modal value, n=12"}, "T. tonsurans": {"tested_on": "T. tonsurans", "details": "modal value, n=10"}, "Epidermophyton floccosum": {"tested_on": "Epidermophyton floccosum", "details": "modal value, n=11"}, "Microsporum canis": {"tested_on": "Microsporum canis", "details": "modal value, n=9"}, "M. gypseum": {"tested_on": "M. gypseum", "details": "modal value, n=9"}, "Aspergillus flavus": {"tested_on": "Aspergillus flavus", "details": "modal value, n=12"}, "A. fumigatus": {"tested_on": "A. fumigatus", "details": "modal value, n=12"}, "A. niger": {"tested_on": "A. niger", "details": "modal value, n=14"}, "A. terrus": {"tested_on": "A. terrus", "details": "modal value, n=7"}, "Fusarium spp.": {"tested_on": "Fusarium spp.", "details": "modal value, n=16"}, "Scopulariopsis spp.": {"tested_on": "Scopulariopsis spp.", "details": "modal value, n=5"}, "Scedosporium spp.": {"tested_on": "Scedosporium spp.", "details": "modal value, n=5"}, "Candida albicans": {"tested_on": "Candida albicans", "details": "modal value, n=10"}, "C. tropicalis": {"tested_on": "C. tropicalis", "details": "modal value, n=10"}, "C. parasilosis": {"tested_on": "C. parasilosis", "details": "modal value, n=10"}, "C. glabrate": {"tested_on": "C. glabrate", "details": "modal value, n=4"}, "[2]": {"tested_on": "C. pseudotropicalis (kefyr)", "details": "modal value, n=1"}, "C. krusei": {"tested_on": "C. krusei", "details": "modal value, n=1"}, "[3]": {"details": "Treatment time Week 26 (N = 18)"}}}
{"substance": "copper silicate", "values": [{"measurement": "% Nail infected 1-10%, number of patients", "setting": "onychomycosis; [3]", "value": 1}, {"measurement": "% Nail infected 11-50%, number of patients", "setting": "onychomycosis; [3]", "value": 8}, {"measurement": "% Nail infected >50%, number of patients", "setting": "onychomycosis; [3]", "value": 6}, {"measurement": "Dermatophyte culture Negative, number of patients", "setting": "onychomycosis; [3]", "value": 12}, {"measurement": "Dermatophyte culture Positive, number of patients", "setting": "onychomycosis; [3]", "value": 6}, {"measurement": "Infecting organism T. mentagrophytes v. interdigitale, number of patients", "setting": "onychomycosis; [3]", "value": 1}, {"measurement": "Infecting organism T. rubrum, number of patients", "setting": "onychomycosis; [3]", "value": 5}, {"measurement": "KOH Negative, number of patients", "setting": "onychomycosis; [3]", "value": 6}, {"measurement": "KOH Positive, number of patients", "setting": "onychomycosis; [3]", "value": 12}, {"measurement": "New growth Clear, number of patients", "setting": "onychomycosis; [3]", "value": 16}, {"measurement": "New growth Not clear, number of patients", "setting": "onychomycosis; [3]", "value": 2}, {"measurement": "Outcome Complete cure, number of patients", "setting": "onychomycosis; [3]", "value": 3}, {"measurement": "Outcome Effective treatment, number of patients", "setting": "onychomycosis; [3]", "value": 3}, {"measurement": "Outcome Mycological change (culture positive to culture negative), number of patients", "setting": "onychomycosis; [3]", "value": 7}, {"measurement": "Outcome Mycological cure, number of patients", "setting": "onychomycosis; [3]", "value": 5}, {"measurement": "Outcome Not effective, number of patients", "setting": "onychomycosis; Treatment time Week 26 (N = 18), includes 1 patient that is KOH negative", "value": "6^@"}, {"measurement": "\"Mycological cure\" patients", "setting": "onychomycosis; after 26 weeks", "value": 28, "unit": "%"}, {"measurement": "Patients with >50% of nail plate diseased having significant clinical improvement (reduction to <50% of the nail plate)", "setting": "onychomycosis; at 26 weeks", "value": 50, "unit": "%"}, {"measurement": "\"Mycological cure\" rate", "setting": "onychomycosis; at 52 weeks", "value": 22, "unit": "%"}, {"measurement": "Patients culture negative", "setting": "onychomycosis; end of the trial", "value": 50, "unit": "%"}, {"measurement": "Patients culture negative", "setting": "onychomycosis; end of treatment", "value": 67, "unit": "%"}, {"measurement": "Clinical - 100% clear", "setting": "onychomycosis; 6 Weeks (n = 13)", "value": "0 % of Patients"}, {"measurement": "Clinical - New growth clear", "setting": "onychomycosis; 6 Weeks (n = 13)", "value": "61 % of Patients"}, {"measurement": "Complete cure (KOH negative, culture negative and 100% clear)", "setting": "onychomycosis; 6 Weeks (n = 13)", "value": "0 % of Patients"}, {"measurement": "Mycology (KOH negative and culture negative)", "setting": "onychomycosis; 6 Weeks (n = 13)", "value": "0 % of Patients"}, {"measurement": "Mycology (KOH negative or culture negative)", "setting": "onychomycosis; 6 Weeks (n = 13)", "value": "53 % of Patients"}, {"measurement": "Clinical - 100% clear", "setting": "onychomycosis; 12 Weeks (n = 10)", "value": "30 % of Patients"}, {"measurement": "Clinical - New growth clear", "setting": "onychomycosis; 12 Weeks (n = 10)", "value": "70 % of Patients"}, {"measurement": "Complete cure (KOH negative, culture negative and 100% clear)", "setting": "onychomycosis; 12 Weeks (n = 10)", "value": "20 % of Patients"}, {"measurement": "Mycology (KOH negative and culture negative)", "setting": "onychomycosis; 12 Weeks (n = 10)", "value": "20 % of Patients"}, {"measurement": "Mycology (KOH negative or culture negative)", "setting": "onychomycosis; 12 Weeks (n = 10)", "value": "80 % of Patients"}, {"measurement": "Minimum Fungicidal Concentration (MFC)", "setting": "Trichophyton rubrum", "value": 0.0350, "unit": "% w/w as Cu"}, {"measurement": "Minimum Inhibitory Concentration (MIC)", "setting": "Trichophyton rubrum", "value": 0.0175, "unit": "% w/w as Cu"}, {"measurement": "Minimum Fungicidal Concentration (MFC)", "setting": "[1]", "value": 0.0350, "unit": "% w/w as Cu"}, {"measurement": "Minimum Inhibitory Concentration (MIC)", "setting": "[1]", "value": 0.0175, "unit": "% w/w as Cu"}, {"measurement": "Minimum Fungicidal Concentration (MFC)", "setting": "T. mentagrophytes", "value": 0.0350, "unit": "% w/w as Cu"}, {"measurement": "Minimum Inhibitory Concentration (MIC)", "setting": "T. mentagrophytes", "value": 0.0175, "unit": "% w/w as Cu"}, {"measurement": "Minimum Fungicidal Concentration (MFC)", "setting": "T. tonsurans", "value": 0.0350, "unit": "% w/w as Cu"}, {"measurement": "Minimum Inhibitory Concentration (MIC)", "setting": "T. tonsurans", "value": 0.0350, "unit": "% w/w as Cu"}, {"measurement": "Minimum Fungicidal Concentration (MFC)", "setting": "Epidermophyton floccosum", "value": 0.0350, "unit": "% w/w as Cu"}, {"measurement": "Minimum Inhibitory Concentration (MIC)", "setting": "Epidermophyton floccosum", "value": 0.0350, "unit": "% w/w as Cu"}, {"measurement": "Minimum Fungicidal Concentration (MFC)", "setting": "Microsporum canis", "value": 0.0700, "unit": "% w/w as Cu"}, {"measurement": "Minimum Inhibitory Concentration (MIC)", "setting": "Microsporum canis", "value": 0.0350, "unit": "% w/w as Cu"}, {"measurement": "Minimum Fungicidal Concentration (MFC)", "setting": "M. gypseum", "value": 0.1400, "unit": "% w/w as Cu"}, {"measurement": "Minimum Inhibitory Concentration (MIC)", "setting": "M. gypseum", "value": 0.0350, "unit": "% w/w as Cu"}, {"measurement": "Minimum Fungicidal Concentration (MFC)", "setting": "Aspergillus flavus", "value": ">0.1400", "unit": "% w/w as Cu"}, {"measurement": "Minimum Inhibitory Concentration (MIC)", "setting": "Aspergillus flavus", "value": 0.1400, "unit": "% w/w as Cu"}, {"measurement": "Minimum Fungicidal Concentration (MFC)", "setting": "A. fumigatus", "value": ">0.1400", "unit": "% w/w as Cu"}, {"measurement": "Minimum Inhibitory Concentration (MIC)", "setting": "A. fumigatus", "value": 0.0350, "unit": "% w/w as Cu"}, {"measurement": "Minimum Fungicidal Concentration (MFC)", "setting": "A. niger", "value": 0.1400, "unit": "% w/w as Cu"}, {"measurement": "Minimum Inhibitory Concentration (MIC)", "setting": "A. niger", "value": 0.0350, "unit": "% w/w as Cu"}, {"measurement": "Minimum Fungicidal Concentration (MFC)", "setting": "A. terrus", "value": ">0.1400", "unit": "% w/w as Cu"}, {"measurement": "Minimum Inhibitory Concentration (MIC)", "setting": "A. terrus", "value": 0.0700, "unit": "% w/w as Cu"}, {"measurement": "Minimum Fungicidal Concentration (MFC)", "setting": "Fusarium spp.", "value": 0.0700, "unit": "% w/w as Cu"}, {"measurement": "Minimum Inhibitory Concentration (MIC)", "setting": "Fusarium spp.", "value": 0.0700, "unit": "% w/w as Cu"}, {"measurement": "Minimum Fungicidal Concentration (MFC)", "setting": "Scopulariopsis spp.", "value": ">0.1400", "unit": "% w/w as Cu"}, {"measurement": "Minimum Inhibitory Concentration (MIC)", "setting": "Scopulariopsis spp.", "value": 0.0350, "unit": "% w/w as Cu"}, {"measurement": "Minimum Fungicidal Concentration (MFC)", "setting": "Scedosporium spp.", "value": ">0.1400", "unit": "% w/w as Cu"}, {"measurement": "Minimum Inhibitory Concentration (MIC)", "setting": "Scedosporium spp.", "value": 0.0350, "unit": "% w/w as Cu"}, {"measurement": "Minimum Fungicidal Concentration (MFC)", "setting": "Candida albicans", "value": 0.0700, "unit": "% w/w as Cu"}, {"measurement": "Minimum Inhibitory Concentration (MIC)", "setting": "Candida albicans", "value": 0.0350, "unit": "% w/w as Cu"}, {"measurement": "Minimum Fungicidal Concentration (MFC)", "setting": "C. tropicalis", "value": 0.0700, "unit": "% w/w as Cu"}, {"measurement": "Minimum Inhibitory Concentration (MIC)", "setting": "C. tropicalis", "value": 0.0350, "unit": "% w/w as Cu"}, {"measurement": "Minimum Fungicidal Concentration (MFC)", "setting": "C. parasilosis", "value": 0.0350, "unit": "% w/w as Cu"}, {"measurement": "Minimum Inhibitory Concentration (MIC)", "setting": "C. parasilosis", "value": 0.0350, "unit": "% w/w as Cu"}, {"measurement": "Minimum Fungicidal Concentration (MFC)", "setting": "C. glabrate", "value": 0.1400, "unit": "% w/w as Cu"}, {"measurement": "Minimum Inhibitory Concentration (MIC)", "setting": "C. glabrate", "value": 0.0350, "unit": "% w/w as Cu"}, {"measurement": "Minimum Fungicidal Concentration (MFC)", "setting": "[2]", "value": 0.0350, "unit": "% w/w as Cu"}, {"measurement": "Minimum Inhibitory Concentration (MIC)", "setting": "[2]", "value": 0.0350, "unit": "% w/w as Cu"}, {"measurement": "Minimum Fungicidal Concentration (MFC)", "setting": "C. krusei", "value": 0.0175, "unit": "% w/w as Cu"}, {"measurement": "Minimum Inhibitory Concentration (MIC)", "setting": "C. krusei", "value": 0.0175, "unit": "% w/w as Cu"}]}
